The results in this text go back to patent publication US12344599B2, “Prodigiosin analogs and methods of use” (Institute For Cancer Research, priority 2016, dated 2025).

The assay has as its system SW480, DLD1 and p53-null cell line HCT116. Put plainly: CellTiter-Glo luminescent cell viability assay (Example 1). Format: cell-based, human. As to the method: SW480, DLD-1, DLD1-p73KD, HCT116, and p53-null HCT116, MRC5 and Wi38 cells were seeded at 5,000 cells per well on 96-well plates. […] Then, cells were mixed with an equal volume of CellTiter-Glo® reagents (Promega), following the manufacturer's protocol, and bioluminescence imaging was measured using the IVIS imager.

As to `CCCCCCCCOC(=O)CCc1c(C)[nH]c(/C=C2\N=C(c3ccc[nH]3)C=C2OC)c1C` [PG3-Oc, Octyl (Z)-3-(5-((4′-methoxy-1H,5′H-[2,2′-bipyrrol]-5′-ylidene)methyl)-2,4-dimethyl-1H-pyrrol-3-yl)propanoate], the “induction of cell death” value (SW480, DLD1, p53-null HCT116) is “potently induced cell death”. Also, the IC50 values result (SW480, DLD1, p53-null HCT116, 72 hours) is “within nanomolar range”.
